Laboratory results from patent US20100179103A1 (priority 2008, published 2010).

Legend:
[1] = in vivo; cited from earlier work
[2] = test system: carrageenan paw inflammation; assay: mouse carrageenan paw inflammation (paw edema) model; assay type: in vivo; conditions: 3 hours; p.o. gavage; curcumin 30 mg/kg, CDC 30 mg/kg, indomethacin 5 mg/kg; male CD-1 mice

Row | SMILES | Tmax [1] [min] | swelling (edema: left paw thickness minus right paw thickness) [2] [mm]
1 | COc1cc(/C=C/C(=O)CC(=O)/C=C/c2ccc(O)c(OC)c2)ccc1O [curcumin, Curcumin] | 3 to 5 | 0.66
2 | COc1ccc2c(c1)c(CC(=O)O)c(C)n2C(=O)c1ccc(Cl)cc1 [indomethacin, Indomethacin] |  | 0.73
